Experimental data from publication PMC3277400 (Nature Medicine, 2011).

Target: TcdB (Clostridioides difficile, UniProt P18177)
Format: biochemical

TcdB, sequence (P18177 2-2366 limits assumed): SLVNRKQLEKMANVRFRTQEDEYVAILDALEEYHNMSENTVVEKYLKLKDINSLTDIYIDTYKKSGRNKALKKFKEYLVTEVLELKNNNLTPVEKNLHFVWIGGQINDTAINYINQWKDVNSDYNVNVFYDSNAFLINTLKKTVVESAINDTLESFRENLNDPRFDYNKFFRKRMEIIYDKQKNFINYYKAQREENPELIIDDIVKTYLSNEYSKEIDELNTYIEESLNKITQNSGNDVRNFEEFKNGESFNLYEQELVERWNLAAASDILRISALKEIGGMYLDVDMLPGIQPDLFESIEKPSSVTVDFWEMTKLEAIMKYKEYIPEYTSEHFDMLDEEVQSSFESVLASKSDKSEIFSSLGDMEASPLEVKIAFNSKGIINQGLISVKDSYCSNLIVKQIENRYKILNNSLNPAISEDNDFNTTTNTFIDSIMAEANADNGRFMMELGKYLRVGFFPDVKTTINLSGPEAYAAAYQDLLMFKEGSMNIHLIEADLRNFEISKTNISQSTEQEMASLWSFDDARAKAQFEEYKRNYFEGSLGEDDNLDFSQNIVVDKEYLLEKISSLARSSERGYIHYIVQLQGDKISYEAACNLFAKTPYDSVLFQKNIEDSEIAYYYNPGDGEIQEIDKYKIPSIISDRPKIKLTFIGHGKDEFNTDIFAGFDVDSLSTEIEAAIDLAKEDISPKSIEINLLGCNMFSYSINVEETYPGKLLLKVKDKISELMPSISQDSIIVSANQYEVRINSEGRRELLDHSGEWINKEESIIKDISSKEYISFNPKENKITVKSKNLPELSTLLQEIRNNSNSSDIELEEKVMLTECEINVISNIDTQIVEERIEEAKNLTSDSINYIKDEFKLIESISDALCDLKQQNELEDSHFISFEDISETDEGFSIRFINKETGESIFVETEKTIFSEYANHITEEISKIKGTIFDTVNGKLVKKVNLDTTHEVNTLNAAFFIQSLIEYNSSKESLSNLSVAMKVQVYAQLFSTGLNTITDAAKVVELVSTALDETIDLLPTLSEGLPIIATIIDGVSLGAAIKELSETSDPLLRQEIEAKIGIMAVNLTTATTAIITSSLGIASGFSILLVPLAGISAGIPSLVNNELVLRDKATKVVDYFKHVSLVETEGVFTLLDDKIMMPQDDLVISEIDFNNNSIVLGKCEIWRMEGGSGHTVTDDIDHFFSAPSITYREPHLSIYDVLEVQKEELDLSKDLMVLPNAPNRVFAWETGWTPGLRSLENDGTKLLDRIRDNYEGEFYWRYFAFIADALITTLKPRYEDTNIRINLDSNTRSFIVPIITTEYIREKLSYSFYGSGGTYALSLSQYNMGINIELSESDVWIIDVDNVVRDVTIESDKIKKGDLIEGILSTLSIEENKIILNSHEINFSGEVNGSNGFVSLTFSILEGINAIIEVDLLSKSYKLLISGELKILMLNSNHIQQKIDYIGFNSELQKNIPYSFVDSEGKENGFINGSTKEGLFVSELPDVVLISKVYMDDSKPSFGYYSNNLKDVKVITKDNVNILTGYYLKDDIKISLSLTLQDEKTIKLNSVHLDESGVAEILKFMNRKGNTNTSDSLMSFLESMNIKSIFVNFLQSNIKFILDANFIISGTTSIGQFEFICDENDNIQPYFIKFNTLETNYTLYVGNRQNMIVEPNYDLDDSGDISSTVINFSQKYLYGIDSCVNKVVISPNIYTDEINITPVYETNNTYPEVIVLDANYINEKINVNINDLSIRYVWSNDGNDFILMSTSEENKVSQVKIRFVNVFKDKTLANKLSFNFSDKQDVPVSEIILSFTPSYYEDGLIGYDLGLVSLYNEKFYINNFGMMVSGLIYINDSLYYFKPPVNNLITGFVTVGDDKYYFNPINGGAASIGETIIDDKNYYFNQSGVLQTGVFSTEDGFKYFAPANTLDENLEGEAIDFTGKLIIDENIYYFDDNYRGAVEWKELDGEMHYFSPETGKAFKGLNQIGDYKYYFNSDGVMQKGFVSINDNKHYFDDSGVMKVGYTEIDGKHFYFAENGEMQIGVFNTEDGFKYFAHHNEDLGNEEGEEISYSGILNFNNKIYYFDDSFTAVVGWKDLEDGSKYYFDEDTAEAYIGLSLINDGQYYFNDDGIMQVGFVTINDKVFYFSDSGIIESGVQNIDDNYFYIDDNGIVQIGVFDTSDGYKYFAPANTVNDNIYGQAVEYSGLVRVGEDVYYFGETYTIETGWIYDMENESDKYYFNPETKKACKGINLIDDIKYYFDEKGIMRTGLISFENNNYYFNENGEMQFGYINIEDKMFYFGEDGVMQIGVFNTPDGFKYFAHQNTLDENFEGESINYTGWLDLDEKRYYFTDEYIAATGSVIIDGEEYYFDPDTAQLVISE

For `O=P(O)(O)O[C@H]1[C@H](OP(=O)(O)O)[C@@H](OP(=O)(O)O)[C@H](OP(=O)(O)O)[C@@H](OP(=O)(O)O)[C@H]1OP(=O)(O)O` [InsP6], the “InsP6-induced autocleavage, gel and immunoblot” value was “Autocleavage of native TcdB versus E743A mutant with increasing InsP6 concentrations”.
